Source: ChEMBL document CHEMBL3046471, “Evaluation of the anti-inflammatory activity of some pyrrolo[2,3-d]pyrimidine derivatives” (2013)

Tests used:
Format in all cases: functional
Rattus norvegicus [1] = test: Anti-inflammatory activity in sc dosed Sprague-Dawley Rattus norvegicus (rat) assessed as inhibition of carrageenan-induced paw edema administered at 1 hr prior to carrageenan injection measured at 4 hr post-carrageenan challenge by water plethysmometer
Rattus norvegicus [2] = test: Anti-inflammatory activity in sc dosed Sprague-Dawley Rattus norvegicus (rat) assessed as inhibition of carrageenan-induced paw edema administered at 1 hr prior to carrageenan injection measured at 2 hr post-carrageenan challenge by water plethysmometer
Rattus norvegicus [3] = test: Anti-inflammatory activity in sc dosed Sprague-Dawley Rattus norvegicus (rat) assessed as inhibition of carrageenan-induced paw edema administered at 1 hr prior to carrageenan injection measured at 1 hr post-carrageenan challenge by water plethysmometer
Rattus norvegicus [4] = test: Anti-inflammatory activity in sc dosed Sprague-Dawley Rattus norvegicus (rat) assessed as inhibition of carrageenan-induced paw edema administered at 1 hr prior to carrageenan injection measured at 3 hr post-carrageenan challenge by water plethysmometer
Rattus norvegicus [5] = test: Anti-inflammatory activity in Sprague-Dawley Rattus norvegicus (rat) assessed as inhibition of carrageenan-induced paw edema at 70 mg/kg, sc administered at 1 hr prior to carrageenan injection measured at 4 hr post-carrageenan challenge by water plethysmometer; settings: route subcutaneous
Rattus norvegicus [6] = test: Anti-inflammatory activity in Sprague-Dawley Rattus norvegicus (rat) assessed as inhibition of carrageenan-induced paw edema at 70 mg/kg, sc administered at 1 hr prior to carrageenan injection measured at 2 hr post-carrageenan challenge by water plethysmometer; settings: route subcutaneous
Rattus norvegicus [7] = test: Anti-inflammatory activity in Sprague-Dawley Rattus norvegicus (rat) assessed as inhibition of carrageenan-induced paw edema at 70 mg/kg, sc administered at 1 hr prior to carrageenan injection measured at 3 hr post-carrageenan challenge by water plethysmometer; settings: route subcutaneous
Rattus norvegicus [8] = test: Anti-inflammatory activity in Sprague-Dawley Rattus norvegicus (rat) assessed as inhibition of carrageenan-induced paw edema administered at 70 mg/kg, sc at 1 hr prior to carrageenan injection measured at 1 hr post-carrageenan challenge by water plethysmometer; settings: route subcutaneous

Compound	inhibition (INH) (Rattus norvegicus [1]) [%]	inhibition (INH) (Rattus norvegicus [2]) [%]	inhibition (INH) (Rattus norvegicus [3]) [%]	inhibition (INH) (Rattus norvegicus [4]) [%]	inhibition in vivo at 70 mg/kg (Rattus norvegicus [5]) [%]	inhibition in vivo at 70 mg/kg (Rattus norvegicus [6]) [%]	inhibition in vivo at 70 mg/kg (Rattus norvegicus [7]) [%]	inhibition in vivo at 70 mg/kg (Rattus norvegicus [8]) [%]
Cc1ccc(-n2c(-c3ccccc3)c(-c3ccccc3)c3c(Cl)ncnc32)cc1	28.59	10	3.92	31.43	–	–	–	–
COc1ccc(-n2cc(-c3ccccc3)c3c2ncn2c(C)nnc32)cc1	35.98	0.5416	15.94	27.8	–	–	–	–
COc1ccc(-n2cc(-c3ccccc3)c3c(NN)ncnc32)cc1	50.26	8.85	23.04	41.73	–	–	–	–
COc1ccc(-n2cc(-c3ccccc3)c3c(N/N=C/c4ccccc4)ncnc32)cc1	66.19	30.77	23.04	62.68	–	–	–	–
Cc1ccc(-n2cc(-c3ccccc3)c3c2ncn2cnnc32)cc1	28.57	0	0	10.48	–	–	–	–
COc1ccc(-n2cc(-c3ccccc3)c3c(Cl)ncnc32)cc1	18.89	17.3	13.4	32.9	–	–	–	–
COc1ccc(-n2c(-c3ccccc3)c(-c3ccccc3)c3c2ncn2cnnc32)cc1	47.62	15.77	8.69	27.94	–	–	–	–
Cc1ccc(-n2c(-c3ccccc3)c(-c3ccccc3)c3c2ncn2cnnc32)cc1	44.44	0	0	15.07	–	–	–	–
Cc1ccc(-n2c(-c3ccccc3)c(-c3ccccc3)c3c2ncn2c(=S)[nH]nc32)cc1	23.81	10.38	0	17.27	–	–	–	–
COc1ccc(-n2c(-c3ccccc3)c(-c3ccccc3)c3c(NN)ncnc32)cc1	62.38	16.92	13.48	61.4	–	–	–	–
COc1ccc(-n2c3c(c(-c4ccccc4)c2-c2ccccc2)C2=NNC(=O)CN2C=N3)cc1	32.8	0	0	15.44	–	–	–	–
COc1ccc(-n2c(-c3ccccc3)c(-c3ccccc3)c3c(N/N=C/c4ccccc4)ncnc32)cc1	62.96	32.31	17.39	54.04	–	–	–	–
Cc1ccc(-n2cc(-c3ccccc3)c3c(-n4nc(C)cc4C)ncnc32)cc1	59.25	2.56	8.7	31.37	–	–	–	–
COc1ccc(-n2cc(-c3ccccc3)c3c2ncn2c(=S)[nH]nc32)cc1	47.62	0	0	28.31	–	–	–	–
COc1ccc(-n2c(-c3ccccc3)c(-c3ccccc3)c3c2ncn2nnnc32)cc1	39.21	0	0	19.7	–	–	–	–
COc1ccc(-n2cc(-c3ccccc3)c3c2ncn2cnnc32)cc1	36.19	0	0	33.46	–	–	–	–
Cc1ccc(-n2c(-c3ccccc3)c(-c3ccccc3)c3c2ncn2c(C)nnc32)cc1	23.81	10	7.39	16.91	–	–	–	–

Compound	inhibition (INH) (Rattus norvegicus [1]) [%]	inhibition (INH) (Rattus norvegicus [2]) [%]	inhibition (INH) (Rattus norvegicus [3]) [%]	inhibition (INH) (Rattus norvegicus [4]) [%]	inhibition in vivo at 70 mg/kg (Rattus norvegicus [5]) [%]	inhibition in vivo at 70 mg/kg (Rattus norvegicus [6]) [%]	inhibition in vivo at 70 mg/kg (Rattus norvegicus [7]) [%]	inhibition in vivo at 70 mg/kg (Rattus norvegicus [8]) [%]
COc1ccc(-n2c(-c3ccccc3)c(-c3ccccc3)c3c2ncn2c(C)nnc32)cc1	28.25	0	0	14.15	–	–	–	–
Cc1ccc(-n2c(-c3ccccc3)c(-c3ccccc3)c3c(NN)ncnc32)cc1	18.57	0	0	29.6	–	–	–	–
Cc1ccc(-n2cc(-c3ccccc3)c3c(N/N=C/c4ccccc4)ncnc32)cc1	41.8	0	0	27.7	–	–	–	–
COc1ccc(-n2c(-c3ccccc3)c(-c3ccccc3)c3c(Cl)ncnc32)cc1	45.39	0	0	33.64	–	–	–	–
Cc1ccc(-n2cc(-c3ccccc3)c3c(Cl)ncnc32)cc1	18.25	1.92	1.3	31.25	–	–	–	–
Cc1ccc(-n2cc(-c3ccccc3)c3c(NN)ncnc32)cc1	39.21	0	0	45.4	–	–	–	–
COc1ccc(-n2c(-c3ccccc3)c(-c3ccccc3)c3c2ncn2c(=S)[nH]nc32)cc1	34.6	20.38	7.39	19.49	–	–	–	–
COc1ccc(-n2cc(-c3ccccc3)c3c(-n4nc(C)cc4C)ncnc32)cc1	61.9	23.85	7.82	35.66	–	–	–	–
Cc1ccc(-n2c3c(c(-c4ccccc4)c2-c2ccccc2)C2=NNC(=O)CN2C=N3)cc1	34.92	23.08	17.39	28.31	–	–	–	–
Cc1ccc(-n2c(-c3ccccc3)c(-c3ccccc3)c3c2ncn2c(=O)[nH]nc32)cc1	42.85	0	0	19.7	–	–	–	–
COc1ccc(-n2c(-c3ccccc3)c(-c3ccccc3)c3c(-n4nc(C)cc4C)ncnc32)cc1	74.6	6.41	0	63.24	–	–	–	–
Cc1ccc(-n2cc(-c3ccccc3)c3c2ncn2c(=S)[nH]nc32)cc1	39.21	19.23	3.04	33.8	–	–	–	–
Cc1ccc(-n2c(-c3ccccc3)c(-c3ccccc3)c3c(N/N=C/c4ccccc4)ncnc32)cc1	32.8	0	0	15.44	–	–	–	–
Cc1ccc(-n2cc(-c3ccccc3)c3c2ncn2c(C)nnc32)cc1	32.85	18.85	11.74	29.5	–	–	–	–
CC(C)Cc1ccc(C(C)C(=O)O)cc1 (stereo unspecified) [IBUPROFEN]	–	–	–	–	69.5	45	60.7	6.08
Cc1ccc(-n2c(-c3ccccc3)c(-c3ccccc3)c3c2ncn2nnnc32)cc1	31.59	11.54	5.65	26.83	–	–	–	–
COc1ccc(-n2c(-c3ccccc3)c(-c3ccccc3)c3c2ncn2c(=O)[nH]nc32)cc1	36.5	10.38	1.45	18.5	–	–	–	–
